No end group written: not given here.

What all share (assay type): cell-based
Experiment [1] deals with Human peripheral neutrophils. Put plainly: Spontaneous oxidative activation of neutrophils (DCFH-DA oxidation). The settings on record: for rate of oxidation of the DCFH probe with soluble PAR ligands: soluble peptides given as 100 mM (FIG. 5); for spontaneous oxidation of the DCFH probe with protease inhibitors: α1 antichymotrypsin and elafin printed as 10 mM (FIG. 4). The text has this: (§1) Human peripheral neutrophils were isolated from heparinized blood donated by healthy volunteers according to a protocol approved by the University of Illinois Institutional Review Board. The cells were isolated using a Histopaque™ gradient (Sigma) according to the manufacturer's instructions. Cell viability and identity was confirmed by trypan blue staining. Live cells and neutrophils represented at least 95% of isolated leukocytes.
(§2) The method for the measurement of oxidative activation of neutrophils was based on the ROS-dependent oxidation of DCFH-DA to DCF and was adapted from Ciapetti et al. DCFH-DA crosses the cell membrane and is hydrolyzed by nonspecific esterases to nonfluorescent DCFH. Its oxidation by ROS results in the generation of highly fluorescent DCF [30]. DCFH-DA is therefore a widely accepted probe for the measurement of an overall index of oxidative activity. DCFH-DA was purchased from Calbiochem (Madison, Wis.). The assays were run in clear bottom black 96-well plate. “Edge effects” (a higher fluorescence in edge wells) were avoided by using only center wells. Briefly, 50 μl of Dulbecco's Phosphate Buffered Saline (DPBS) containing DCFH-DA was added to each well with the final concentration of […]. S100 proteins or PKC inhibitors were diluted in the wells. Just before a baseline reading 100,000 neutrophils in 50 μl PBS were placed in each well. 96-well plates were incubated at 37° C. and 5% CO2 and were read at baseline (immediately after cell addition to the plates) and at indicated time points in a Spectra Max Gemini XS fluorescent plate reader. The excitation wavelength was 485 and the reading was done at 530 nm. Wells with no DCFH-DA were used to measure background fluorescence which was subtracted from each reading. Controls with no cells were also analyzed and display no increased fluorescence over time. All assays were conducted in triplicate or quadruplicate wells.
In order to avoid differences between donors, experimental procedures and plate to plate variation, all experimental conditions and statistical analysis were run within one plate inclusive of all positive and negative controls. Single sample t-tests were calculated to test the S100A8, S100A9 and combined proteins in comparison to the control wells with alpha set to ≦0.05 to determine statistical significance. Comparisons between the S100A8, S100A9 and combined proteins were calculated with two sample t-tests using SPSS (SPSS Inc., Chicago, Ill.) with alpha set to ≦0.05 to determine statistical relevance.

A further experiment has as its system thrombin receptors. As to the kind of experiment: Calcium flux and thrombin-S100A8/A9 cross-desensitization in Chem-3 cells. How it is done:
Screening for S100A8 and S100A9 activity on thrombin receptors including thrombin receptor desensitization were conducted with calcium flux assays in Chem 3 and PAR-4 expressing Chem.-1 cells by Millipore's GPCRProfiler(R) Service (Millipore, St. Charles, Mo.; see website Millipore website on the internet).
In general terms: A change in cytosolic calcium serves as a functional read-out for many receptors and channels.

In experiment [2] the test system is Human peripheral neutrophils. As to the kind of experiment: LPS stimulated neutrophil oxidative metabolism (DCFH-DA oxidation). The settings on record: 10 μM; 10 μg/ml LPS.
Description: as §1, §2

Regarding TFRGAP-NH2 [PAR-3, reference compound], in experiment [1], the “rate of oxidation of the DCFH probe with soluble PAR ligands” value (shortened to “rate of oxidation of the DCFH probe”) is recorded as “not PAR-1, PAR-2 or PAR-3”. As to “elafin: inhibitor of PR3 and elastase (AQEPVKGPVSTKPGSCPIILIRCAMLNPPNRCLKDTDCPGIKKCCEGSCGMACFVPQ; ends and bridges not checked; cysteine pairing not given here; UniProt P19957 61-117, looked up) [reference compound]”, the “spontaneous oxidation of the DCFH probe with protease inhibitors” value in experiment [1] is recorded as “no effect on DCFH oxidation”. As to GYPGQV-NH2 [PAR-4, reference compound], the “rate of oxidation of the DCFH probe” value in experiment [1] is given as “resulted in a significantly accelerated rate of oxidation of the DCFH probe”. Same read-out and setting: with TFLLRN [PAR-1, reference compound] the entry was “not PAR-1, PAR-2 or PAR-3”. For the molecule thrombin [reference compound], in the experiment on thrombin receptors (10 nM thrombin first, then 10 μM S100A8 or 10 μM S100A9), the “desensitization of Chem-3 cells to S100A8 or S100A9 stimulation” value is given as “resulted in a desensitization of Chem-3 cells to further stimulation”. The “calcium flux in Chem-3 cells” value with thrombin receptors (each alone) is recorded as “trigger calcium flux in Chem-3 cells in a dose dependent manner”. As to `CCCCCCCCCCCCCC(=O)O[C@@H]1[C@@H](C)[C@@]2(O)[C@@H](C=C(CO)C[C@]3(O)C(=O)C(C)=C[C@@H]23)[C@@H]2C(C)(C)[C@]12OC(C)=O` [PMA, phorbol 12-myristate 13-acetate, reference compound], the “rate of DCFH oxidation by a PKC activator” value in experiment [1] (1 μM PMA) is recorded as “significantly accelerated the rate of DCFH oxidation”. As for SLIGKV-NH2 [PAR-2, reference compound], in experiment [1], the “rate of oxidation of the DCFH probe” value is listed as “not PAR-1, PAR-2 or PAR-3”. With `COc1ccccc1NC(=O)Nc1nc(-c2cccnc2)nc2ccccc12` [VUF5574, N-(2-methoxyphenyl)-N′-[2-(3-pyridinyl)-4-quinazolinyl]-urea, reference compound], the “effect on anti-oxidative effect of S100A8, spontaneous oxidative metabolism” value in experiment [1] (2.5 μg/ml S100A8, 1 hour) was “produces a dose sensitive inhibition the anti-oxidative effect of S100A8 on neutrophil spontaneous oxidative metabolism”. In addition, in experiment [2], the “effect on anti-oxidative effect of S100A8 and S100A9, LPS exposed neutrophils” value is reported as “This anti-oxidative effect was countered”.

B1: calprotectin: mixture of S100A8 and S100A9 at a 1:1 weight ratio referred to as calprotectin (protein)
chain 1: MLTELEKALNSIIDVYHKYSLIKGNFHAVYRDDLKKLLETECPQYIRKKGADVWFKELDINTDGAVNFQEFLILVIKMGVAAHKKSHEESHKE
chain 2: MTCKMSQLERNIETIINTFHQYSVKLGHPDTLNQGEFKELVRKDLQNFLKKENKNEKVIEHIMEDLDTNADKQLSFEEFIMLMARLTWASHEKMHEGDEGPGHHHKPGLGEGTP
Turning to B1, the “rate of spontaneous oxidation of the DCFH-DA probe” value in experiment [1] (2.5 to 10 μg/ml of protein, followed over time, p <0.001 to <0.05) is “reduced the rate at which spontaneous oxidation of the DCFH-DA probe occurred in a dose dependent manner”. Also, in experiment [1] (1 h time point, all concentrations tested, P<0.05 compared to control), the “oxidative metabolism (fluorescence emission of DCFH-DA probe)” value was “significantly inhibited oxidative metabolism at all concentrations tested”.

B2: α1 antichymotrypsin: α1-Antichymotrypsin from human plasma; inhibits cathepsin G (protein)
chain: HPNSPLDEENLTQENQDRGTHVDLGLASANVDFAFSLYKQLVLKAPDKNVIFSPLSISTALAFLSLGAHNTTLTEILKGLKFNLTETSEAEIHQSFQHLLRTLNQSSDELQLSMGNAMFVKEQLSLLDRFTEDAKRLYGSEAFATDFQDSAAAKKLINDYVKNGTRGKITDLIKDLDSQTMMVLVNYIFFKAKWEMPFDPQDTHQSRFYLSKKKWVMVPMMSLHHLTIPYFRDEELSCTVVELKYTGNASALFILPDQDKMEEVEAMLLPETLKRWRDSLEFREIGELYLPKFSISRDYNLNDILLQLGIEEAFTSKADLSGITGARNLAVSQVVHKAVLDVFEEGTEASAATAVKITLLSALVETRTIVRFNRPFLMIIVPTDTQNIFFMSKVTNPKQA
Take B2: in experiment [1], the “spontaneous oxidation of the DCFH probe with protease inhibitors” value was “caused a marked and significant reduction in the oxidation of the DCFH probe”.

Source of the values: patent publication US8173598B2, “Myeloid protein activation of anti-inflammatory and anti-hypoxic pathway” (The Board of Trustees of the University of Illinois, priority 2008, dated 2012).
